These results are taken from ChEMBL document CHEMBL6109119, “Chemoproteomic Profiling of C. albicans for Characterization of Antifungal Kinase Inhibitors” (J Med Chem, 2025).

One may read the IC50 as the concentration at which inhibition is half-maximal. Usually inhibition stands for the percentage by which the read-out fell short of the control.

The target of test [1] is T1, Serine/threonine protein kinase YCK2 (Candida albicans (strain SC5314 / ATCC MYA-2876) (Yeast), UniProt A0A1D8PKB4).
T1 sequence (A0A1D8PKB4 whole entry): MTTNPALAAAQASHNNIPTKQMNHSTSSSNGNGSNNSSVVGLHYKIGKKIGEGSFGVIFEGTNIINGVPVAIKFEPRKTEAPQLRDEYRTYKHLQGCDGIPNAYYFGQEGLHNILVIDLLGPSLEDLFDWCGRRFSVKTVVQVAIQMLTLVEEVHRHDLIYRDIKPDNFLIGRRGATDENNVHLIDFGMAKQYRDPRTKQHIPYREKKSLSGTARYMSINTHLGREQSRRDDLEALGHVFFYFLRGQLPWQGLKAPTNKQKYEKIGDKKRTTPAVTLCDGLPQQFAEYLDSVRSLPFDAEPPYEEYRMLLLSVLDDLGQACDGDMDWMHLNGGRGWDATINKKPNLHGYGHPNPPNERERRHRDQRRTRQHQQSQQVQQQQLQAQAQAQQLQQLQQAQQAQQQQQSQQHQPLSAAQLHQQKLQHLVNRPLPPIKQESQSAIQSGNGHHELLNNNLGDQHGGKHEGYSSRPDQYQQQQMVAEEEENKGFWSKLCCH

Test [2] concerns the target T1, Serine/threonine protein kinase YCK2. The test is classed as cell-based, HEK293.
In test [3] the target is T2, Casein kinase I isoform delta (Homo sapiens, UniProt P48730). It counts as cell-based, HEK293.
Target sequence in this assay (P48730 whole entry, canonical isoform): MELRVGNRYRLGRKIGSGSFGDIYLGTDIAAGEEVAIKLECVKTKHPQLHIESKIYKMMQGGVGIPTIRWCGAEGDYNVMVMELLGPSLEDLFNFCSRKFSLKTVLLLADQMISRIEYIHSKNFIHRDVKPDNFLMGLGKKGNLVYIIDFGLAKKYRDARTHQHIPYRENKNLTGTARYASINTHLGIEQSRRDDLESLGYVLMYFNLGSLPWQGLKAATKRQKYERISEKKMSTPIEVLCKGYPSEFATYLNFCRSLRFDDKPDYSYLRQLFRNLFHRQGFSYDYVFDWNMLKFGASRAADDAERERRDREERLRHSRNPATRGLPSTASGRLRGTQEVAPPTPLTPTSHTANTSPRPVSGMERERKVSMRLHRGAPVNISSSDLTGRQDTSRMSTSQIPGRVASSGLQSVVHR
The target in test [4] is T3, Casein kinase I isoform epsilon (Homo sapiens, UniProt P49674). It counts as cell-based, HEK293.
Target sequence in this assay (P49674 whole entry, canonical isoform): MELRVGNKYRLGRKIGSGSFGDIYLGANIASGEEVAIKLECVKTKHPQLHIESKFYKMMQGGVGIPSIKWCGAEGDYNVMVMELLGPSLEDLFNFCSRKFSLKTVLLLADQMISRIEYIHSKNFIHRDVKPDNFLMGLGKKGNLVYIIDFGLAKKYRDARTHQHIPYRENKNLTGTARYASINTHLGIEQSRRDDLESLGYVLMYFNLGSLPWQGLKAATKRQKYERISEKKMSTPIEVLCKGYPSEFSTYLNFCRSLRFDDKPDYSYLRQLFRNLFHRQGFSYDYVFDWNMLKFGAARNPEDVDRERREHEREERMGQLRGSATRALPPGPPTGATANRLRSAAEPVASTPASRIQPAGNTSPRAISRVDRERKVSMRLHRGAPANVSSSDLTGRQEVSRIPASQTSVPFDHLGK
For test [5], the target named is Casein kinase I isoform alpha (Homo sapiens, UniProt P48729).
Casein kinase I isoform alpha, sequence (P48729 whole entry, canonical isoform): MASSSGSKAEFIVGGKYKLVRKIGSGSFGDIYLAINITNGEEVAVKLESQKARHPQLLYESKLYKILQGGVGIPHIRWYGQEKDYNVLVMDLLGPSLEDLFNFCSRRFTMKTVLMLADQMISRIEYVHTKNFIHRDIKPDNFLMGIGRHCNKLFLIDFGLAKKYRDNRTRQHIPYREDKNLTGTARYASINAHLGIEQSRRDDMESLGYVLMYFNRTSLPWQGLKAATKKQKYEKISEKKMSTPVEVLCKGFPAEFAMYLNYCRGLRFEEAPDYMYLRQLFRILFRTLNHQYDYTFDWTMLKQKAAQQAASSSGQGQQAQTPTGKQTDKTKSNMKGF
Test [6] deals with T4, Mitogen-activated protein kinase 14 (Homo sapiens, UniProt Q16539).
T4 sequence (Q16539 whole entry, canonical isoform): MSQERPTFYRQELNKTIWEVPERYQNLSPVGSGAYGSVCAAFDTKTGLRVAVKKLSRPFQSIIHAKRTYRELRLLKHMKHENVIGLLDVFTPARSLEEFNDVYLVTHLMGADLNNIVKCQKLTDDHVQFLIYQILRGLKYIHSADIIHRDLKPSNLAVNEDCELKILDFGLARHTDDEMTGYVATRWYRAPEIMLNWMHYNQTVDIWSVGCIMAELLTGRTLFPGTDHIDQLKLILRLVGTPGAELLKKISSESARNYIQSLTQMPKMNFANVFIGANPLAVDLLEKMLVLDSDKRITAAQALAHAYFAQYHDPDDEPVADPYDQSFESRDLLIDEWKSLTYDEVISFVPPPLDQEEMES
The target of test [7] is T3, Casein kinase I isoform epsilon. Kind of test: Inhibition of human CK1epsilon transfected in HEK293 cells at 10 uM using NanoBRET NanoGlo substrate incubated for 2 hrs in presence of K8 tracer by NanoBRET assay relative to control. It counts as cell-based. (In general: BRET reads energy transfer from a luciferase to a nearby fluorophore.)
Target sequence in this assay (P49674 whole entry, looked up, canonical isoform): as the sequence (P49674 whole entry, canonical isoform) above
Test [8] deals with T5, Serine/threonine protein kinase YCK2 (Candida albicans (strain SC5314 / ATCC MYA-2876) (Yeast)) (UniProt A0A1D8PKB4).
T5 sequence (whole entry): T1 sequence (A0A1D8PKB4 whole entry)
The experiment in a line: Binding affinity to Candida albicans Yck2 assessed as target engagement by MIB/MS competition assay.

The test system of test [9] is Candida albicans. Kind of test: Binding affinity to Candida albicans Hog1 assessed as target engagement at 0.1 to 10 uM by MIB/MS competition analysis. The note with it: dose 0.1-10 µM.
For test [10], the system named is Candida albicans. The experiment in a line: Antifungal activity against Candida albicans harboring tetO-ERG6/erg6mutant assessed as inhibition of fungal growth in presence of doxycyclin. The test is classed as functional, organism-based.
The test system of test [11] is Candida albicans. The experiment in a line: Antifungal activity against Candida albicans harboring flu1mutant/mutant assessed as inhibition of fungal growth. The test is classed as functional, organism-based.
In test [12] the test system is Candida albicans. Kind of test: Antifungal activity against Candida albicans harboring mdr1mutant/mutant assessed as inhibition of fungal growth. It counts as functional, organism-based.
Test [13] has as its system Candida albicans. Kind of test: Antifungal activity against Candida albicans harboring tetO-YCK2/yck2 mutant assessed as inhibition of fungal growth at 100 uM in presence of doxycyclin. It counts as functional, organism-based.
The subject of test [14] is Candida albicans. Kind of test: Antifungal activity against wild type Candida albicans CaSS1 at 100 uM. It counts as functional, organism-based.
The subject of test [15] is Candida albicans. The experiment in a line: Binding affinity to Candida albicans Hrr25 assessed as target engagement at 0.1 to 10 uM by MIB/MS competition assay. The note with it: dose 0.1-10 µM.
In test [16] the test system is Candida albicans. Kind of test: Antifungal activity against Candida albicans harboring cdr2mutant/mutant assessed as inhibition of fungal growth. The test is classed as functional, organism-based.
In test [17] the test system is Candida albicans. The experiment in a line: Antifungal activity against Candida albicans harboring cdr1mutant/mutant assessed as inhibition of fungal growth. It counts as functional, organism-based.
In test [18] the target is T4, Mitogen-activated protein kinase 14. The experiment in a line: Inhibition of human P38alpha transfected in HEK293 cells using NanoBRET NanoGlo substrate incubated for 2 hrs in presence of K4 tracer by NanoBRET assay. It counts as cell-based.
Test [19] has as its system Candida albicans. The experiment in a line: Antifungal activity against Candida albicans harboring tetO-YCK2/yck2 mutant assessed as inhibition of fungal growth at 100 uM in absence of doxycyclin. It counts as functional, organism-based.
In test [20] the target is T2, Casein kinase I isoform delta. The experiment in a line: Binding affinity to human CK1 delta transfected in HEK293 cells at 0.1 to 10 uM by MIB/MS competition assay. The test is classed as cell-based. The following applies: dose 0.1-10 µM.
Target sequence in this assay (P48730 whole entry, looked up, canonical isoform): as the sequence (P48730 whole entry, canonical isoform) above
For test [21], the target named is T3, Casein kinase I isoform epsilon. Kind of test: Binding affinity to human CK1epsilon transfected in HEK293 cells at 0.1 to 10 uM by MIB/MS competition assay. It counts as cell-based. The following applies: dose 0.1-10 µM.
Target sequence in this assay (P49674 whole entry, looked up, canonical isoform): as the sequence (P49674 whole entry, canonical isoform) above
Test [22] deals with Serine/threonine-protein kinase N3 (Homo sapiens) (UniProt Q6P5Z2). Kind of test: Binding affinity to human PKN3 transfected in HEK293 cells at 0.1 to 10 uM by MIB/MS competition assay. It counts as cell-based. The note with it: dose 0.1-10 µM.
Serine/threonine-protein kinase N3 (Homo sapiens), sequence (Q6P5Z2 whole entry, looked up): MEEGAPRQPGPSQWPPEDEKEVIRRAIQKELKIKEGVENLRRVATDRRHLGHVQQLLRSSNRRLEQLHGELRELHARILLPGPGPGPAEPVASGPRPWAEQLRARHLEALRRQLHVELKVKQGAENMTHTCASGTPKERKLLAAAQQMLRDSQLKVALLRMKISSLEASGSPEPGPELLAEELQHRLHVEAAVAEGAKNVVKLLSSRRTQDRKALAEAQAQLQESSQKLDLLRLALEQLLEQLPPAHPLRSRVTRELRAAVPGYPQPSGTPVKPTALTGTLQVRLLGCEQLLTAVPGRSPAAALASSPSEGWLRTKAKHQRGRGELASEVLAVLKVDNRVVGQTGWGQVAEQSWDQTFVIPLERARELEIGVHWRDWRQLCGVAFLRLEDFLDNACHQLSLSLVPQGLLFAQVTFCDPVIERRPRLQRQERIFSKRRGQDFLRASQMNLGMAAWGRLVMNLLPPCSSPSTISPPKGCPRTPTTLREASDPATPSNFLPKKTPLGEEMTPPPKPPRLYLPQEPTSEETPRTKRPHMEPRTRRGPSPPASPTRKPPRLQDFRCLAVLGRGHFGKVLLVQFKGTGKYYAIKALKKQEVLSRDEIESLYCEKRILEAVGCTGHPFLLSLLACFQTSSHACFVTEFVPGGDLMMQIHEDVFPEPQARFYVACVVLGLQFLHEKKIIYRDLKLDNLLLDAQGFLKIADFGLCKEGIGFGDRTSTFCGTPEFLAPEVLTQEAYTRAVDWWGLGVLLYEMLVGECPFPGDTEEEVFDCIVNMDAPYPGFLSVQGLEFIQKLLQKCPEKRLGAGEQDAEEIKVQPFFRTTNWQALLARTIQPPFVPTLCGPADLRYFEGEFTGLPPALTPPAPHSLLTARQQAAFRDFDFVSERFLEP
Test [23] deals with T6, Activin receptor type-1B (Homo sapiens) (UniProt P36896).
T6 sequence (whole entry): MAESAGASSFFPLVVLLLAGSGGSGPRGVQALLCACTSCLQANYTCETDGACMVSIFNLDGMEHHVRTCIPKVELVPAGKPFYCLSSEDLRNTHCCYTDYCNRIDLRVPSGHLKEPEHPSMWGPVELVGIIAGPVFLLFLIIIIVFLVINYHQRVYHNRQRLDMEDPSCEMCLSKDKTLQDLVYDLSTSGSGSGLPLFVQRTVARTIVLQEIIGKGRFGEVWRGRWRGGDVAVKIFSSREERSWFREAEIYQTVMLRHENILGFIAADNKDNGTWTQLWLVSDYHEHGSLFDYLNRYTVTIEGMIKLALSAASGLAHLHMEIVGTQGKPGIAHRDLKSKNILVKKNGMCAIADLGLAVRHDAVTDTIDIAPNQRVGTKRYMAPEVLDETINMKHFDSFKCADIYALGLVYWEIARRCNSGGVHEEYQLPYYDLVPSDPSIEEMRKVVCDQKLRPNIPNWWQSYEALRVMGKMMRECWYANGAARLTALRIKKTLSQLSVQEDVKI
Kind of test: Binding affinity to human ALK4 transfected in HEK293 cells at 0.1 to 10 uM by MIB/MS competition assay. The test is classed as cell-based. The note with it: dose 0.1-10 µM.

The target of test [24] is Casein kinase I isoform gamma-2 (Homo sapiens) (UniProt P78368). Kind of test: Binding affinity to human CK1gamma 2 transfected in HEK293 cells at 0.1 to 10 uM by MIB/MS competition assay. It counts as cell-based. The note with it: dose 0.1-10 µM.
Casein kinase I isoform gamma-2 (Homo sapiens), sequence (P78368 whole entry, looked up, canonical isoform): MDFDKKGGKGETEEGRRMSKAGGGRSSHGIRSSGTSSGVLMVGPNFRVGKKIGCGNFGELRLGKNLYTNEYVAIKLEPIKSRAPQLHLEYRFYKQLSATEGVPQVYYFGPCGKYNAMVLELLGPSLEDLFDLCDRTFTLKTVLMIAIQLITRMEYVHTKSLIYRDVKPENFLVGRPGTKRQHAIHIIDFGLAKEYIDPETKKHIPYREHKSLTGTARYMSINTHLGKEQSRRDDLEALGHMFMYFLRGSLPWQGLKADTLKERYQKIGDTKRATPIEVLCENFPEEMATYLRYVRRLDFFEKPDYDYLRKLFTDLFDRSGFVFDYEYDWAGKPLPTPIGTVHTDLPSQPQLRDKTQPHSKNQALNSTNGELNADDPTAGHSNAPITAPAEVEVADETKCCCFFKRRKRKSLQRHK
Test [25] concerns the target Receptor-interacting serine/threonine-protein kinase 2 (Homo sapiens) (UniProt O43353). Kind of test: Binding affinity to human RIPK2 transfected in HEK293 cells at 0.1 to 10 uM by MIB/MS competition assay. The note with it: dose 0.1-10 µM. It counts as cell-based.
Test [26] concerns the target T5, Serine/threonine protein kinase YCK2 (Candida albicans (strain SC5314 / ATCC MYA-2876) (Yeast)). The following applies: HEK293, dose 10.0 µM.
The target is the same in test [27]. The following applies: HEK293, dose 10.0 µM. This is another data set of the same source.
Test [28] concerns the target Mitogen-activated protein kinase 11 (Homo sapiens) (UniProt Q15759). The experiment in a line: Binding affinity to human P38beta transfected in HEK293 cells at 0.1 to 10 uM by MIB/MS competition assay. The test is classed as cell-based. The note with it: dose 0.1-10 µM.
The subject of test [29] is HEK293. The following applies: Candida albicans, dose 10.0 µM.
In test [30] the test system is HEK293. The following applies: Candida albicans, dose 10.0 µM. The source holds these as a separate data set.
Test [31] concerns HEK293. The following applies: Candida albicans, dose 10.0 µM. The source holds these as a separate data set.

Active and inactive are the calls of the source. The calls are words filed in the database; no cut-off is given here. A value given as a limit tells only on which side of the number the result lay.

Receptor-interacting serine/threonine-protein kinase 2 (Homo sapiens), sequence (O43353 whole entry): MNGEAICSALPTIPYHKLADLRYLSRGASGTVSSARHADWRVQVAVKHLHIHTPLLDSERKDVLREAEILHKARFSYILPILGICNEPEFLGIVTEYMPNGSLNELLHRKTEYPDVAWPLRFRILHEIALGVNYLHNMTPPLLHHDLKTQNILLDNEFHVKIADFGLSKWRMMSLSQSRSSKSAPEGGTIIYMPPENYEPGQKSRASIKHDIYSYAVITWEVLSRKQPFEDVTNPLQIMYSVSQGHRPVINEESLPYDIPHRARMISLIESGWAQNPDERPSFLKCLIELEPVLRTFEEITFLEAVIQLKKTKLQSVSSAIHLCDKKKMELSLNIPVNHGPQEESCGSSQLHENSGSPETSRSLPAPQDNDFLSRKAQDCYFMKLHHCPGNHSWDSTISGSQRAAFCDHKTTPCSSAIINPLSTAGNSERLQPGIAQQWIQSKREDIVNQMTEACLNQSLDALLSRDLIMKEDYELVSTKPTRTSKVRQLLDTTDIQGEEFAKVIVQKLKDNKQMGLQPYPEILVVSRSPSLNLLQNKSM
Mitogen-activated protein kinase 11 (Homo sapiens), sequence (Q15759 whole entry): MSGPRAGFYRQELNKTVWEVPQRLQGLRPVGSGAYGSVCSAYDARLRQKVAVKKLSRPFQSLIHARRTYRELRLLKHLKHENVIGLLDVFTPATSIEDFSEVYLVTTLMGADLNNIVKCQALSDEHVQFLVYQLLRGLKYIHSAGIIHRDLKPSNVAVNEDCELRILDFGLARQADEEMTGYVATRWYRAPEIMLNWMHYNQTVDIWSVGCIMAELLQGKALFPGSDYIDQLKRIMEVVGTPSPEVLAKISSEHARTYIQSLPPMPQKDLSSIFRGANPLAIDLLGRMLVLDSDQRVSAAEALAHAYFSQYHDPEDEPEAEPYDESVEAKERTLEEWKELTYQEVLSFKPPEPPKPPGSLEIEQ

Take `Cc1occc1-c1nc(N)c(OC[C@@H](N)Cc2c[nH]c3ccccc23)cc1-c1cc2c(C)n[nH]c2cn1`: the IC50 in test [1] amounted to 0.18 µM; in test [2], 3.7 µM; in [3], 1.4 µM; in test [4], 0.62 µM.

Consider `CN1CCC(F)(Cn2cnc(-c3ccc(F)cn3)c2-c2ccnc3[nH]ccc23)CC1`, for which the IC50 in [1] is 0.64 µM; in test [2], above 10 µM; in test [5] it was 0.014 µM; in [4], 0.082 µM.

As for `CC(C)[C@H](CO)Nc1nc(Nc2cc(N)cc(Cl)c2)c2ncn(C(C)C)c2n1` [AMINOPURVALANOL], the IC50 in test [6] is above 20 µM; in test [1] it was above 8 µM; in test [2], above 10 µM; in test [5], above 20 µM; in test [3] it was above 10 µM; in [4], above 10 µM. The inhibition in [7] was determined as 25%.

In the case of `Cc1n[nH]c2ccc(-c3cc(OC[C@@H](N)Cc4ccccc4)cnc3-c3ccoc3)cc12`, the Activity result in [8] is “Dose-dependent-effect”. Further, the half-inhibitory concentration (IC50) stood at 0.1 µM in test [2], 0.1 µM in [3] and 0.2 µM in test [4].

`c1ccc(-c2n[nH]cc2-c2ccnc3ccccc23)nc1`: the result in the test with Candida albicans [9], in the test on Candida albicans [11], in the test with Candida albicans [12], in the test on Candida albicans [16] and in the test with Candida albicans [17] was inactive. Also, the outcome with Candida albicans [10], with Candida albicans [13], with Candida albicans [15] and in the test with Candida albicans [19] was Active. Further, the half-maximal inhibitory concentration (IC50) in test [6] is 2.6 µM; in test [3], 2.8 µM; in test [18], 0.76 µM. For the same compound, the inhibition in test [7] is below 25%. Further, in the test with Candida albicans [14], the Activity result is “Active; Weakly Active”.

With `CC(C)n1nc(-c2cc3cc(O)ccc3[nH]2)c2c(N)ncnc21`, the inhibition in [7] is above 50%.

`Cc1nc(N)sc1-c1ccnc(Nc2ccc(N3CCOCC3)cc2)n1` [CYC-116]: the results for the half-inhibitory concentration (IC50) in [6], in [2] and in [4] were above 20 µM, above 10 µM and around 10 µM, respectively. Further, the inhibition in test [7] was above 50%.

Turning to `C[C@@H](N)c1ccc(C(=O)Nc2ccnc3[nH]ccc23)cc1` [Y-39983], the IC50 in test [6] was above 20 µM; in [1] it was above 8 µM; in [2], above 10 µM; in test [3], above 10 µM; in [4], above 10 µM. For the same compound, the inhibition in [7] amounted to 25%.

As to `CC(=O)c1cnc2ccc(-c3cc(Cl)c(O)c(Cl)c3)nc2c1N[C@H]1CC[C@H](CN(C)C)CC1`, the 50% inhibitory concentration (IC50) in test [6] was 0.04 µM; in [2], 0.66 µM; in test [18] it was above 10 µM.

`CC(C)(C)n1nc(Cc2cccc3ccccc23)c2c(N)ncnc21`: the IC50 in test [6] is 0.75 µM; in [1], above 8 µM; in test [3], above 10 µM; in test [4], 0.014 µM; in [18], 1.6 µM.

With `CC(C)(C)c1cnc(CSc2cnc(NC(=O)C3CCNCC3)s2)o1` [BMS-387032], in [7], the inhibition was found to be 25%. The values for the IC50 in [1] and in test [2] were above 8 µM and above 10 µM, respectively.

For the compound `Cc1ccc2c(-c3ccncc3)c(-c3ccc(F)cc3)nn2c1`, the IC50 in [3] amounted to 0.23 µM; in [4] it was 0.78 µM; in [18] it was 0.044 µM.

As for `N#Cc1ccc2c(-c3ccncc3)c(-c3ccc(F)cc3)nn2c1`, the outcome in [20], in test [21], in [22], in test [23], in test [24] and in [25] was Active. Also, the inhibition in test [7] was 25%. Besides, the IC50 was above 10 µM in test [4] and 0.08 µM in [18].

Consider `N#Cc1ccn2c(-c3ccncc3)c(-c3ccc(F)cc3)nc2c1`, for which the result in test [20], in [21], in test [22], in test [28] and in [25] was Active. Further, the log2FC in test [26] is -2.2; in [27], -3.5; in the test with HEK293 [29], -2.2; with HEK293 [30], -1.4; in the test on HEK293 [31], -1. Besides, in test [7], the inhibition came to 25%. Moreover, the IC50 in test [4] was above 10 µM.

On to `Nc1nc(Nc2ccc(S(N)(=O)=O)cc2)n(C(=S)Nc2c(F)cccc2F)n1`, for which the concentration for half-maximal inhibition (IC50) in [6] is above 20 µM; in test [1] it was 0.47 µM; in test [2], above 10 µM; in [5], above 20 µM; in test [4], above 10 µM. Further, in test [7], the inhibition came to 25%.

`CNC(=O)c1nn(C)c2c1C(C)(C)Cc1cnc(Nc3ccc(N4CCN(C)CC4)cc3)nc1-2` [MILCICLIB]: the half-maximal inhibitory concentration (IC50) in test [6] was above 20 µM; in test [1], 0.77 µM; in [2], 1.1 µM; in test [5] it was 0.25 µM; in test [3], 0.2 µM.
